Source: US6444681B1, “Methods and compositions for treating Raynaud's Phenomenon and scleroderma” (The Ohio State University Research Foundation, priority 2000, dated 2002)
Where two headings read alike, the source gives them in different places.

Columns and labels:
Mouse Tail Artery = experiment: Antagonism of UK 14,304-induced vasoconstriction in isolated pressurised distal mouse tail artery; format: cell-based; details: for Kd: versus UK 14,304, distal tail artery; for effect on vasoconstrictor response to UK 14,304: cold (28° C.), ARC 0239 50 nM, MK912 3×10^−10M; for effect on vasoconstrictor response to UK 14,304 / effect on vasoconstriction to the α2-AR agonist UK 14,304: BRL 44408 100 and 1000 nM; for effect on vasoconstriction to the α2-AR agonist UK 14,304: warm temperatures (37° C.), ARC 239 50 nM, MK 912 0.3 nM; for −log KD: n=4
Excerpt: Male mice (C57BL6) were euthanized by CO2 asphyxiation. Proximal and/or distal segments of tail artery were then rapidly removed and placed in cold Krebs-Ringer bicarbonate solution (in mM): 118.3 NaCl, 4.7 KCl, 1.2 MgSO4, 1.2 KH2PO4, 2.5 CaCl2, 25.0 NaHCO3, 11. glucose (control solution). The small arteries were cannulated at both ends with glass micropipettes, secured using 12-0 nylon monofilament suture and placed in a microvascuiar chamber (Living Systems, Burlington, Vt.). The arteries were maintained at a constant transmural pressure of 60 mmHg in the absence of flow. The chamber was superfused with control solution and maintained at 37° C., pH 7.4, and gassed with 16% O2-5% CO2-balance N2. The chamber was placed on the stage of an inverted microscope (X20, Nikon TMS-F, Japan) connected to a video camera (Panasonic, CCTV camera, Japan). The vessel image was projected onto a video monitor and the internal diameter continuously determined by a video dimension analyzer (Living Systems Instrumentation, Burlington Vt.) and monitored using a BIOPAC (Santa Barbara, Calif.) data acquisition system (Gateway Dimensions Pentium Computer).
Small arteries were allowed to equilibrate for 30-40 min at a transmural pressure (PTM) of 60 mmHg before addition of α1 and α2-AR agonists and antagonists. Concentration-effect curves to the selective α1-AR agonist, phenylephrine, or the selective α2-AR agonist, UK 14,304 (brimonidine, 5-bromo-N-(4,5-dihydro-1H-imidazol-2-yl)-6-quinoxalinamine) were generated by increasing the concentration of the agonists in half-log increments, once the constriction to the previous concentration had stabilized. Following completion of the concentration-effect curve, the influence of the agonists was terminated by repeatedly exchanging the buffer solution and allowing the artery to return to its stable baseline level.
To evaluate the effect of selective α2-AR antagonists on vasoconstriction, concentration-effect curves to UK 14,304 were determined under control conditions and in the presence of the selective α2A-AR antagonist, BRL 44408 (100 and 1000 nM), the selective α2B-AR antagonist ARC 0239 (50 nM) or the selective α2C-AR antagonist MK 912 (0.3 nM) (Table 1). When these receptor antagonists were used, the preparations were incubated for 30 min with the drugs prior to, and also during, exposure of the arteries to the agonists. When analyzing the influence of cold on α-AR responsiveness, the temperature of the superfusate was decreased to 28° C. for 30 min prior to commencing a concentration effect curve to the constrictor agonists. This provides sufficient time for the effect of cold on adrenergic reactivity to stabilize.
Vasomotor responses were expressed as a percentage change in internal diameter (ID) prior to administrating the agent. Because of the phasic behavior of the vasomotion in distal. tail arteries, the signal was electronically averaged (BIOPAC software, smoothing factor of 2000) in order to obtain diameter measurements. Functional data is expressed as means±SEM for n number of experiments, where n equals the number of animals from which blood vessels were studied. Antagonist dissociation constants (KD) were determined either from Arunlakshana and Schild plots or according to the formula: KD=[Ant]/(CR-1), where [Ant] is the concentration of antagonist, and CR the ratio of agonist-concentrations producing equal responses in the presence and absence of the antagonist. […] Statistical evaluation of the data was performed by Student's t-test for either paired or unpaired observations. When more than two means were compared, analysis of variance was used. If a significant F value was found, Scheffe's test for multiple comparisons was employed to identify differences among groups. Values were considered to be statistically different when P was less than 0.05.

α-2A = target: T1, α-2A (Homo sapiens, UniProt P08913); details: cited from earlier work
T1 sequence (P08913 1-465): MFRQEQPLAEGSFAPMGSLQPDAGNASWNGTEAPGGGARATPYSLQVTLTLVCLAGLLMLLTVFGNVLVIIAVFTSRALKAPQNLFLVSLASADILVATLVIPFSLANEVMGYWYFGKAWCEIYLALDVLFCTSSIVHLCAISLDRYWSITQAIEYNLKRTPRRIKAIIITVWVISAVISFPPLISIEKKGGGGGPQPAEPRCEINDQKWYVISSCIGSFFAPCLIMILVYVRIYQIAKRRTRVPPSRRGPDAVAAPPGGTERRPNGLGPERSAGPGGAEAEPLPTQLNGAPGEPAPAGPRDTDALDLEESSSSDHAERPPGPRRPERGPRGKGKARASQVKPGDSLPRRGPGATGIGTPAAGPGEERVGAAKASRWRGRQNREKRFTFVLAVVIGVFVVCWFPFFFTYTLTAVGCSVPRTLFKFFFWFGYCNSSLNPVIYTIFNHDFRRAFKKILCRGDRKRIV

α-2B = target: T2, α-2B (Homo sapiens, UniProt P18089); details: cited from earlier work
T2 sequence (P18089 1-450): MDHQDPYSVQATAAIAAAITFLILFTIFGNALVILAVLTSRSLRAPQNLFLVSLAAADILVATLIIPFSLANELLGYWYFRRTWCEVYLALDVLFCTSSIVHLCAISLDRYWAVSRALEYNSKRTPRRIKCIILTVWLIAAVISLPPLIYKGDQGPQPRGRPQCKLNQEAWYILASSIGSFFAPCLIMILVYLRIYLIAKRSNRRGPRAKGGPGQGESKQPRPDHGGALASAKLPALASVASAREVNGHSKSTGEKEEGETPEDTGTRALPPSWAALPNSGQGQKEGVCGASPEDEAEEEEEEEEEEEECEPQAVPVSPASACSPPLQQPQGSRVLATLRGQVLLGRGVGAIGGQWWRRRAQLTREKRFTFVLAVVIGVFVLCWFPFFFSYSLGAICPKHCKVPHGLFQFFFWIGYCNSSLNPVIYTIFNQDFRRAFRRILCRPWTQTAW

α-2C = target: T3, α-2C (Homo sapiens, UniProt P18825); details: cited from earlier work
T3 sequence (P18825 1-462): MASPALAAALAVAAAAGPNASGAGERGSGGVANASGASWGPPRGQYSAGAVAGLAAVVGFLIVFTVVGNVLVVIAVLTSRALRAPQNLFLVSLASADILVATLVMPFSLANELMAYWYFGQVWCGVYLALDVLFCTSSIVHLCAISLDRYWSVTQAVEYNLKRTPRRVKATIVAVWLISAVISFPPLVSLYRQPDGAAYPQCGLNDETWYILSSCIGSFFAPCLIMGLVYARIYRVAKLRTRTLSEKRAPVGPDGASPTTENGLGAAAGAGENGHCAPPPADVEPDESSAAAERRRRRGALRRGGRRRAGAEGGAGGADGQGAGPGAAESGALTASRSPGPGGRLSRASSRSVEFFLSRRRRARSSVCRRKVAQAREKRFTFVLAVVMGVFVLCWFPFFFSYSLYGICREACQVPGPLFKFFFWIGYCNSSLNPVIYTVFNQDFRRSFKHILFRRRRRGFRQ

[1] = system: control and SSc arterioles; experiment: Agonist-induced vasoconstriction in human dermal arterioles from control and SSc subjects; format: cell-based; details: for Emax: Homo sapiens; for constriction: 1 μM of the agonist
Excerpt: Skin biopsies (6 mm punch) were obtained from the same location on the medial aspect on the upper arm of patients and control subjects. Eleven patients with diffuse cutaneous SSc were studied: nine female and two male. Their average age was 49 years old (range 33 to 69) and they had SSc for an average of 4 years (range 1 to 9 years from first physician diagnosis of SSc). SSc patients were recruited from the Johns Hopkins and University of Maryland Scleroderma Center. All patients met the American College of Rheumatology criteria for a diagnosis of SSc. Biopsy of the skin was performed in the upper arm in an area considered to have normal skin thickness determined by clinical palpation (clinically-uninvolved skin). Patients with overlap syndromes (e.g. lupus) were excluded. Patient medications varied between individuals: anti-inflammatory /immunosuppressant, 4 patients on prednisone, 1 on methotrexate, 1 on cyclophosphamide, and 1 on D-penicillamine; gastrointestinal, 5 on omeprazole, 3 on cisapride, 2 on ranitidine, 1 on lansoprazole; angiotensin converting enzyme inhibitors, 3 on enalapril, 1 on lisinopril; angiotensin receptor antagonists, 1 on losartin, 1 on valsartin; calcium antagonists, 2 on nifedipine, 1 on verapamil, 1 on amlodipine, 1 on diltiazem; α1-adrenergic receptor antagonists, 1 on terazosin. Vasoconstrictor responses to the α1-adrenergic receptor (α1-AR) agonist, phenylephrine, were not included for the patient receiving terazosin. Eight normal subjects were analyzed: six female and two males with an average age of 50 years old (range 38 to 62). All patients and volunteers gave informed consent and the study was approved by the Johns Hopkins University human subjects IRB committee.
Arterioles were dissected from the deep dermal plexus of the biopsies and any side branches tied. […] The arterioles were cannulated with glass micropipettes and placed in a microvessel chamber as previously describe. The arterioles were maintained in no-flow state at a constant transmural pressure (PTM)of 40 mmHg. The chamber was superfused with buffer solution (37° C., pH 7.4, gassed with 16% O2-5% CO2-balance N2) and placed on stage of an inverted microscope for continuous monitoring of internal diameter using a video camera and video dimension analyzer.
Vasoconstriction was assessed in response to: i) KCl (15 to 60 mM), ii) the selective α1-AR agonist, phenylephrine (0.01 to 1 μM) (SIGMA, St Louis, Mo.), or iii) the selective α2-AR agonist, UK 14,304 (1 to 100 nM) (brimonidine, 5-bromo-N-(4,5-dihydro-1H-imidazol-2-yl)-6-quinoxalinamine, RBI, Natick, Mass.). Responses to UK 14,304 were also evaluated following denudation of the endothelium, achieved by carefully placing a wire (70μdiameter) through the vessel lumen. Endothelium-removal was confirmed by histology and by loss of response to the endothelial stimuli acetylcholine or bradykinin.
Responses were expressed as a percentage change in baseline diameter. Data is expressed as means±SEM for n number of experiments, where n equals the number of subjects from which blood vessels were studied. Concentration-effect curves were analyzed by comparing: i) maximal responses (vasoconstriction or dilatation), and ii) the area under the curve (AUC). Statistical evaluation of the data was performed using paired or unpaired t-tests. Responses were considered to be statistically different when P was less than 0.05.

mouse tail arteries = experiment: Agonist-induced vasoconstriction in isolated mouse tail artery, with influence of cold; format: cell-based; details: for constriction of proximal and distal segments of mouse tail arteries: 10^−9 to 3×10^−7M, 37° C.; for influence of cold on the constrictor response to the agonist: distal segments, 28° C. versus 37° C.
Method: Small arteries were allowed to equilibrate for 30-40 min at a transmural pressure (PTM) of 60 mmHg before addition of α1 and α2-AR agonists and antagonists. […] Following completion of the concentration-effect curve, the influence of the agonists was terminated by repeatedly exchanging the buffer solution and allowing the artery to return to its stable baseline level.
Vasomotor responses were expressed as a percentage change in internal diameter (ID) prior to administrating the agent. Because of the phasic behavior of the vasomotion in distal. tail arteries, the signal was electronically averaged (BIOPAC software, smoothing factor of 2000) in order to obtain diameter measurements. Functional data is expressed as means±SEM for n number of experiments, where n equals the number of animals from which blood vessels were studied. Antagonist dissociation constants (KD) were determined either from Arunlakshana and Schild plots or according to the formula: KD=[Ant]/(CR-1), where [Ant] is the concentration of antagonist, and CR the ratio of agonist-concentrations producing equal responses in the presence and absence of the antagonist. […] Statistical evaluation of the data was performed by Student's t-test for either paired or unpaired observations. […]

[2] = 28° C. (cold), read-out: KD Mouse Tail Artery 28° C.
[3] = 37° C. (warm), read-out: KD Mouse Tail Artery 37° C.

| Kd (Mouse Tail Artery; [2]) | Kd (Mouse Tail Artery; [3]) | −log KD (Mouse Tail Artery; 28° C. (cold)) | −log KD (Mouse Tail Artery; 37° C., Arunlakshana and Schild plot) | SMILES | expected shift in concentration-effect curves generated by α2B-AR stimulation (Mouse Tail Artery; based on the Table 1 KD, antagonist at 50 nM) | effect on vasoconstrictor response to UK 14,304 (Mouse Tail Artery) | effect on vasoconstriction to the α2-AR agonist UK 14,304 (Mouse Tail Artery) | Kd (α-2A) | Kd (α-2B) | Kd (α-2C) | effect on cold-induced amplification of the α2-AR response (Mouse Tail Artery; 28° C. versus 37° C., UK 14,304) | Emax ([1]; SSc arterioles with endothelium, 1-100 nM, read-out: maximal response to the agonist (constriction)) | Emax ([1]; control arterioles with endothelium, 1-100 nM, read-out: maximal response to the agonist (constriction)) | Emax ([1]; endothelium-denuded SSc arterioles, read-out: maximal response (constriction)) | Emax ([1]; endothelium-denuded control arterioles, read-out: maximal response (constriction)) | constriction of proximal and distal segments of mouse tail arteries (mouse tail arteries) | influence of cold on the constrictor response to the agonist (mouse tail arteries) | constriction ([1]; SSc arterioles) | constriction ([1]; control arterioles) |
| --- | --- | --- | --- | --- | --- | --- | --- | --- | --- | --- | --- | --- | --- | --- | --- | --- | --- | --- | --- |
| > 50 nM | > 50 nM | – | – | COc1ccccc1N1CCN(CCN2C(=O)c3ccccc3C(C)(C)C2=O)CC1 [ARC 239] | ~10 fold | not inhibited | not inhibited | 256 nM | 4.6 nM | 51 nM | – | – | – | – | – | – | – | – | – |
| 29 nM | 20 nM | 7.54 ± 0.10 | 7.69±0.13 | CC1c2ccccc2CN1CC1=NCCN1 (stereo not shown) [BRL 44408] | – | reduced | inhibited | 13 nM | 174 nM | 187 nM | did not reduce | – | – | – | – | – | – | – | – |
| – | – | – | – | Brc1c(NC2=NCCN2)ccc2nccnc12 [UK 14,304, 5-bromo-N-(4,5-dihydro-1H-imidazol-2-yl)-6-quinoxalinamine] | – | – | – | – | – | – | – | 67 ± 4% | 25 ± 5% | 67 ± 10% | 25 ± 7% | caused concentration-dependent constriction | dramatically and reversibly increased | – | – |
| – | – | – | – | CNC[C@H](O)c1cccc(O)c1 [phenylephrine] | – | – | – | – | – | – | – | – | – | – | – | caused concentration-dependent constriction | did not affect | 45±7% | 45±8% |
